Drawing on ChEMBL document CHEMBL1201862, “PubChem BioAssay data set” (2004), this text covers IC50, EC50 and AC50 for 3 compounds.

Activity calls are given as the source filed them.

In experiment [1] the target is Neuropeptides B/W receptor type 1 (Homo sapiens, UniProt P48145). The experiment is described as follows: GPR7 antagonist potency, late-stage follow-up, cell-based, fluorescence, dose response, set 6 (AID 588583). The format is functional.
The target of experiment [2] is Melanin-concentrating hormone receptor 1 (Homo sapiens, UniProt Q99705). The experiment can be described thus: Late-stage fluorescence-based counterscreen for antagonists of the G-protein coupled receptor 7 (GPR7): cell-based dose response assay to identify antagonists of the melanin-concentrating hormone receptor 1 (MCHR1) Set 6. Type of experiment: functional. In general terms: Counterscreens check selectivity or assay interference.
Melanin-concentrating hormone receptor 1, sequence (Q99705 whole entry): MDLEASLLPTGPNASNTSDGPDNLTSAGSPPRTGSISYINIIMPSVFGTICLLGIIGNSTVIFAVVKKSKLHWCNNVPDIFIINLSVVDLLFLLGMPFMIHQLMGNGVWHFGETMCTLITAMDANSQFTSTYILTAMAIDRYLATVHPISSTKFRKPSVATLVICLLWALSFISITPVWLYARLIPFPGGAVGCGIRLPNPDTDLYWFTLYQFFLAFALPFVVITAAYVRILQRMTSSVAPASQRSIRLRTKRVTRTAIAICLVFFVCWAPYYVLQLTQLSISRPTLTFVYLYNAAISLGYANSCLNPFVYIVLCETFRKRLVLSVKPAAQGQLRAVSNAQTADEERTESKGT

The target in experiment [3] is Genome polyprotein (dengue virus type 2, UniProt P29990). The experiment can be described thus: Dengue-2 NS5 methyltransferase inhibitors, primary screen, biochemical, confirmation dose response (AID 588689). The format is functional.
Experiment [4] concerns the target T1, High affinity choline transporter 1 (Homo sapiens, UniProt Q9GZV3).
T1 sequence (Q9GZV3 whole entry): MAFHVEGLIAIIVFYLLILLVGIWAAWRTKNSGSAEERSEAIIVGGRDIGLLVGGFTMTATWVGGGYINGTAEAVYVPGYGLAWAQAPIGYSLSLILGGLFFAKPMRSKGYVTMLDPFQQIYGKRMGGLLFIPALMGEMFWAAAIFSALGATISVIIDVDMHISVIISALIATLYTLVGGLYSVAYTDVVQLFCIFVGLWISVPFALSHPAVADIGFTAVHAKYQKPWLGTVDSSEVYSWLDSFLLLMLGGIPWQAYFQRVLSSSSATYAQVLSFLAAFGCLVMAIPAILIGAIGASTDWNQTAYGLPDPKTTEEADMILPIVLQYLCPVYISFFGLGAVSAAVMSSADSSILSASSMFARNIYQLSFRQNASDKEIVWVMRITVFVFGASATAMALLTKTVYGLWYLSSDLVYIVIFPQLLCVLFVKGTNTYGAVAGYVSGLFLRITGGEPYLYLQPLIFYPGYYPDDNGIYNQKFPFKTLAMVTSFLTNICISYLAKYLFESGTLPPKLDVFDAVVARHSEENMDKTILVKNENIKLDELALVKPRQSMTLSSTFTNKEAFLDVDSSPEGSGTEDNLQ
The experiment is described as follows: CHT inhibitors, dose response, cell-based, 10-point CRC, membrane potential dye (AID 588401).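 Also: membrane potential dye fluorescence of choline-evoked depolarization via CHT.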 The format is functional.

In experiment [5] the target is T1, High affinity choline transporter 1. The experiment can be described thus: CHT inhibitors, dose response, cell-based, 5-point CRC, membrane potential dye (AID 504840). Type of experiment: functional.
Experiment [6] deals with T2, Protein RecA (Mycobacterium tuberculosis, UniProt P9WHJ3).
T2 sequence (P9WHJ3 whole entry): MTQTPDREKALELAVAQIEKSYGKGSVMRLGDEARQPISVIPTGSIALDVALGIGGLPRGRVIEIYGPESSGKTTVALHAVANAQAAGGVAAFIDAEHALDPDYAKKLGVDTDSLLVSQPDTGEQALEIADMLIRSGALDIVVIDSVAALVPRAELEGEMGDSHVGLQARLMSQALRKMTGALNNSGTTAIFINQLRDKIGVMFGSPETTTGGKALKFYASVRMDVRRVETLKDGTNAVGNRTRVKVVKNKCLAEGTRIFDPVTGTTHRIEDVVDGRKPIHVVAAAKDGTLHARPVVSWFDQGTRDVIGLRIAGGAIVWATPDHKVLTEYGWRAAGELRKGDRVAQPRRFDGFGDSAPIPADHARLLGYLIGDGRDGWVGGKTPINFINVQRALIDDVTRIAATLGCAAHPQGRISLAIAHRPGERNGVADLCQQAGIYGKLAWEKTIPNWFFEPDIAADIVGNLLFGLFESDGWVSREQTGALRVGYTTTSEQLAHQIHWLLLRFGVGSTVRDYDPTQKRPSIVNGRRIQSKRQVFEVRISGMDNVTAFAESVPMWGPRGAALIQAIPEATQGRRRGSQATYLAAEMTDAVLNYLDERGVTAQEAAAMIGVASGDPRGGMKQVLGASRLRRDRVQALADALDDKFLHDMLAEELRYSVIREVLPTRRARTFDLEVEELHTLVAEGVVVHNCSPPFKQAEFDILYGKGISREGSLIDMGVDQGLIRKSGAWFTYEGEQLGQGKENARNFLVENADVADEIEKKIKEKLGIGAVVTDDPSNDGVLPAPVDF
The experiment is described as follows: Fluorescence Cell-Free Homogeneous Dose Retest to Identify Inhibitors of RecA-Intein Splicing Activity. [Related pubchem assays (depositor defined):AID2097, AID2223, AID489010, AID492950]. The format is functional.

The target of experiment [7] is T3, Fatty acid synthase (Homo sapiens, UniProt P49327). The experiment can be described thus: FAS thioesterase domain inhibitors, dose response, biochemical, kinetic fluorescence intensity (AID 624326).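 Also: rate of fluorescence rise from hydrolysis of a fluorogenic O-methyl fluorescein ester substrate.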 Type of experiment: functional.
T3 sequence (P49327 whole entry, the tested form may be a part): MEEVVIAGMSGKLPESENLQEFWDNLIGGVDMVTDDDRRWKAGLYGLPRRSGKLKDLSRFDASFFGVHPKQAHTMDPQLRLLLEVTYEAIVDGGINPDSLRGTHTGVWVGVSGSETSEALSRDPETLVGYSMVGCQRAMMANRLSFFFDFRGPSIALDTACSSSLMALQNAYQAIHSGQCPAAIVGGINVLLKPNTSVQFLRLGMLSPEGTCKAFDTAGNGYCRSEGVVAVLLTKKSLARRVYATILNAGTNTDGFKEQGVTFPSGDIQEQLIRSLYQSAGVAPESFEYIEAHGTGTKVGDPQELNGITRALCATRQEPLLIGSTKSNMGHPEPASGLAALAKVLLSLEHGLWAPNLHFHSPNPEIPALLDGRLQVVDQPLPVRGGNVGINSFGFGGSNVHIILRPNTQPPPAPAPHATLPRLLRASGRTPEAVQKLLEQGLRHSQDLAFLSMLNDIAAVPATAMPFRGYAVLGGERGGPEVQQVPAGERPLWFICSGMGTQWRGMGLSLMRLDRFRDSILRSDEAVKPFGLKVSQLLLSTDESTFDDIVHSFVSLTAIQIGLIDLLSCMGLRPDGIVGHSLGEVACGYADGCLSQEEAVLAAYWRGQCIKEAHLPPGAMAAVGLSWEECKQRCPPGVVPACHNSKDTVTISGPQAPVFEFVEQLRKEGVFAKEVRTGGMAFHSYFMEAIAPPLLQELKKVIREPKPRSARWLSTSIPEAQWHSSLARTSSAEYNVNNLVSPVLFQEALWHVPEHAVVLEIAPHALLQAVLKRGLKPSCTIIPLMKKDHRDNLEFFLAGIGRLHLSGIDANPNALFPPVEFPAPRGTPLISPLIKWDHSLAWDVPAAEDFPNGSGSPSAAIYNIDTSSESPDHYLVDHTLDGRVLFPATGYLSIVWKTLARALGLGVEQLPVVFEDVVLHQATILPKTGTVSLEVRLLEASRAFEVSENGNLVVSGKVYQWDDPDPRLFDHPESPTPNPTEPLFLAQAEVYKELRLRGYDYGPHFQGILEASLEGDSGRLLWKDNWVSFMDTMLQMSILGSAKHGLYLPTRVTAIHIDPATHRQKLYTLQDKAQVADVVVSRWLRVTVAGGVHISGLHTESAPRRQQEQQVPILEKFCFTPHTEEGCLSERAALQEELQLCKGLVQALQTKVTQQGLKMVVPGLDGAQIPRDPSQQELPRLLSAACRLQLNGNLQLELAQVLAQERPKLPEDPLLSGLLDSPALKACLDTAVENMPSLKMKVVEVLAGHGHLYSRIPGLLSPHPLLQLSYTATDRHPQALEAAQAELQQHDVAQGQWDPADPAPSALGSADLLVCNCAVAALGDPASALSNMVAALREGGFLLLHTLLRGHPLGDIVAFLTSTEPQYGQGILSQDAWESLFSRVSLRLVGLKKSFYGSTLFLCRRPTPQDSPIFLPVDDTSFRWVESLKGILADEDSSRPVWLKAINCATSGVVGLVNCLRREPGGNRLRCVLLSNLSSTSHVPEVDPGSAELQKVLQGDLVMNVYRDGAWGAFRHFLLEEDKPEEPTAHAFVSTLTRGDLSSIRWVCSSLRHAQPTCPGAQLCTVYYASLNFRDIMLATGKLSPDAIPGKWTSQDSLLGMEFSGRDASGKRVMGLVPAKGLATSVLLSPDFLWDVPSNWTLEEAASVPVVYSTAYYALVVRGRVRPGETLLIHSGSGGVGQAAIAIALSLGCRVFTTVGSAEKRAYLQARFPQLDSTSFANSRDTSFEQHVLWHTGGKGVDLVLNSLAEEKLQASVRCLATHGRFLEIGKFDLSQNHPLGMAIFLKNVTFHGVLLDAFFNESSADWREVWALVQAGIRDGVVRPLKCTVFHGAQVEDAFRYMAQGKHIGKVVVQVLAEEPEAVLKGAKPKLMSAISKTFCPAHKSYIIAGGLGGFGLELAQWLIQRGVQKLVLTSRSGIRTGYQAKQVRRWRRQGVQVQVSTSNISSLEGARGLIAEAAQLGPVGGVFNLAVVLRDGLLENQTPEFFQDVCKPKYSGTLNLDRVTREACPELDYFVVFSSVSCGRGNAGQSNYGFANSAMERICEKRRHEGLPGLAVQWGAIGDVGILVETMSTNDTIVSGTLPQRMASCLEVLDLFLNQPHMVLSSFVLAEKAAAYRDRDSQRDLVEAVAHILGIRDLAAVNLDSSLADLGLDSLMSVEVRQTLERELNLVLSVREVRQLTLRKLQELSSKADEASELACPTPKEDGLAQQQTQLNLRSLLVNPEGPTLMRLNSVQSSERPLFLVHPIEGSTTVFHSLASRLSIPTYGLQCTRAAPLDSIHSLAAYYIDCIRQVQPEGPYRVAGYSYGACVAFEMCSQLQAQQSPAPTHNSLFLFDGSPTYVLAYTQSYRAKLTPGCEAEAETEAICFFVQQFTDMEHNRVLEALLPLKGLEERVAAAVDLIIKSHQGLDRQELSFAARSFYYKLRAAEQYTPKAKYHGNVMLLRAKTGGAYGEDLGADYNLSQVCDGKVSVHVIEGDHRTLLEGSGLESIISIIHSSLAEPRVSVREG
Experiment [8] addresses Serine/threonine-protein phosphatase PP1-alpha catalytic subunit (Homo sapiens, UniProt P62136). The experiment can be described thus: PP1 phosphatase inhibitors, dose response, biochemical, fluorescence (AID 2394).
The target in experiment [9] is T4, Replicative DNA helicase DnaB (Mycobacterium tuberculosis, UniProt P9WMR3).
T4 sequence (P9WMR3 whole entry): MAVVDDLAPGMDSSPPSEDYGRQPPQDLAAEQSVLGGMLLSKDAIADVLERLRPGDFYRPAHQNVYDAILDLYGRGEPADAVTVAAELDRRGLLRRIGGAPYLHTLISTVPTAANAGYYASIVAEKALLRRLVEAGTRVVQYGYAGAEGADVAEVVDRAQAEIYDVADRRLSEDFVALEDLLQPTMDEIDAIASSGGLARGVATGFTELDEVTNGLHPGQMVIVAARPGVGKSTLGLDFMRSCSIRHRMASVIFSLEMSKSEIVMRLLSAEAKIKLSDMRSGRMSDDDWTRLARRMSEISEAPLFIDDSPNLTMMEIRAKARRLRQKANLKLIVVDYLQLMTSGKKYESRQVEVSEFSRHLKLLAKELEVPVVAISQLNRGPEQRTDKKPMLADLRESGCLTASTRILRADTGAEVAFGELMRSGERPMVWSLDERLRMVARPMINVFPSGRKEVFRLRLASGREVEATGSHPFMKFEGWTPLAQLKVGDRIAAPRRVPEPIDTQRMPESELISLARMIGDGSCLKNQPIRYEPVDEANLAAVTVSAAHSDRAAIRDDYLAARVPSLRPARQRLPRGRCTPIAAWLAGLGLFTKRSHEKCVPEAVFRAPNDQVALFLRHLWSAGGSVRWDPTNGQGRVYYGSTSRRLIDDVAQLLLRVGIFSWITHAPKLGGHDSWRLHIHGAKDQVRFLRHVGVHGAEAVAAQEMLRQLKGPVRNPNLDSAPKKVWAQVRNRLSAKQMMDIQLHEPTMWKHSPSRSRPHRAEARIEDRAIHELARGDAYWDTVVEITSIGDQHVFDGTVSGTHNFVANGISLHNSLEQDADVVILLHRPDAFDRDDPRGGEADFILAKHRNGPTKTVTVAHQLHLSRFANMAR
The experiment is described as follows: DnaB intein splicing inhibitors, dose response, biochemical, cell-free fluorescence (AID 449749). The format is functional.

The target in experiment [10] is T5, Serine/threonine-protein phosphatase (Homo sapiens, UniProt Q9BPW0).
T5 sequence (Q9BPW0 whole entry): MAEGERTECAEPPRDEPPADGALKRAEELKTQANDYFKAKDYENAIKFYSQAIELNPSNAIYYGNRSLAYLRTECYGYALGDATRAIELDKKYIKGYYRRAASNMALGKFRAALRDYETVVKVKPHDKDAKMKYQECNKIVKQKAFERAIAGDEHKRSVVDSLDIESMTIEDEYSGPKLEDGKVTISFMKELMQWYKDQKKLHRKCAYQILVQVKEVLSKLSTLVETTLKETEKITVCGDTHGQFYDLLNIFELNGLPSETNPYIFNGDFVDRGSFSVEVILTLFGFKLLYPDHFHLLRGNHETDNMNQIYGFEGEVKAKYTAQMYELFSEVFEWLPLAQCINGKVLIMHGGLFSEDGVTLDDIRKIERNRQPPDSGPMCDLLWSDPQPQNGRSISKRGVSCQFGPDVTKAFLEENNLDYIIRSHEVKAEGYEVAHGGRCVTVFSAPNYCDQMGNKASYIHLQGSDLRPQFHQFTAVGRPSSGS
The experiment is described as follows: PP5 phosphatase inhibitors, dose response, biochemical, fluorescence (AID 2395).

Experiment [11] has as its target T3, Fatty acid synthase. The experiment is described as follows: FAS thioesterase domain inhibitors, dose response, biochemical, endpoint fluorescence intensity, uHTS hits (AID 624327).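 Also: fluorescence from hydrolysis of an O-methyl fluorescein acyl ester substrate by the enzyme.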 The format is functional.
Experiment [12] deals with Cyclin-dependent kinase 5/CDK5 activator 1 (Homo sapiens, UniProt Q00535). The experiment is described as follows: CDK5-p25 kinase inhibition, dose response, selectivity assay for GSK3beta inhibitor project, biochemical, microfluidic mobility shift, dry powder, set 2 (AID 623979). Type of experiment: functional.
Cyclin-dependent kinase 5/CDK5 activator 1, sequence (Q00535 whole entry): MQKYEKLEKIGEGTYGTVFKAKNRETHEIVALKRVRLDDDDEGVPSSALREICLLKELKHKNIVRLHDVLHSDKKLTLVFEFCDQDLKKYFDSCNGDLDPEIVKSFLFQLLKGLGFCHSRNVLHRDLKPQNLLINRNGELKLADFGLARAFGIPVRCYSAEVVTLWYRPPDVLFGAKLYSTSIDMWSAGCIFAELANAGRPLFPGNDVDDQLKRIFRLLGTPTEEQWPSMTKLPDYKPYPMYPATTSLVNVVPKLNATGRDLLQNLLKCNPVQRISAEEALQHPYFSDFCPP
Cyclin-dependent kinase 5/CDK5 activator 1, sequence (Q15078 whole entry, further chain): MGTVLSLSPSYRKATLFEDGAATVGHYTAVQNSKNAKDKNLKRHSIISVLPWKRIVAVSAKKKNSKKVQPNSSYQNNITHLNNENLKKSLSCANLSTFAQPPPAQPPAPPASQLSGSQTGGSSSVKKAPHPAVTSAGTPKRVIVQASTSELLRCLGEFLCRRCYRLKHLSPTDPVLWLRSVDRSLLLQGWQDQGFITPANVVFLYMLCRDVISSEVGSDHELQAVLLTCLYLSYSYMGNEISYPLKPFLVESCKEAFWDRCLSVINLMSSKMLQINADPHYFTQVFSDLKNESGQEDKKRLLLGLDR
Experiment [13] can be described thus: Luminescence Cell-Based Dose Response HTS to Identify Inhibitors of 5'UTR Stem-Loop Driven Prion Protein mRNA Translation in H4 Neuroglioblastoma Cells. [Related pubchem assays: 1827 (Project Summary), 1813 (Primary HTS)]. Type of experiment: functional.
Experiment [14] in a line: inhibitors of SNCA 5'UTR-driven reporter translation, confirmation, H4 neuroglioma cells, luminescence (AID 1988). The format is functional, cell-based.
Experiment [15] can be described thus: inhibitors of firefly luciferase expression or activity, dose response, H4 neuroglioma cells, luminescence (AID 1990). The format is functional, cell-based.
Experiment [16] has as its target Glycogen synthase kinase-3 alpha (Homo sapiens, UniProt P49840). The experiment can be described thus: human GSK3 alpha kinase inhibition, dose response, selectivity assay for GSK3beta inhibitor project, biochemical, microfluidics, dry powder samples, set 2 (AID 623978). Type of experiment: functional.
The target in experiment [17] is Glycogen synthase kinase-3 beta (Homo sapiens, UniProt P49841). The experiment can be described thus: GSK3beta kinase inhibitors, dose response, biochemical, microfluidics, dry powder samples, set 2 (AID 623989). The format is functional.
Glycogen synthase kinase-3 beta, sequence (P49841 whole entry): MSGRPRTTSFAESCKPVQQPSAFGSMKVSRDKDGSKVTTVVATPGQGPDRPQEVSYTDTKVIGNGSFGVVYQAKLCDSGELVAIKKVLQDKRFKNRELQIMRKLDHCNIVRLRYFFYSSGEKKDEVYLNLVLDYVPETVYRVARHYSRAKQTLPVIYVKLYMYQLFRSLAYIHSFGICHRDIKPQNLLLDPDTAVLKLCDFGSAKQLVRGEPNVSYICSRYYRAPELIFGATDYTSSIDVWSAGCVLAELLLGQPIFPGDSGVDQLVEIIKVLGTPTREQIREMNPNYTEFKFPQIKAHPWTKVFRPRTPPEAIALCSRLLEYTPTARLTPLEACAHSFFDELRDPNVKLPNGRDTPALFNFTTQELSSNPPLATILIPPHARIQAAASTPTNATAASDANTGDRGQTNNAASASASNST

Neuropeptides B/W receptor type 1, sequence (P48145 whole entry): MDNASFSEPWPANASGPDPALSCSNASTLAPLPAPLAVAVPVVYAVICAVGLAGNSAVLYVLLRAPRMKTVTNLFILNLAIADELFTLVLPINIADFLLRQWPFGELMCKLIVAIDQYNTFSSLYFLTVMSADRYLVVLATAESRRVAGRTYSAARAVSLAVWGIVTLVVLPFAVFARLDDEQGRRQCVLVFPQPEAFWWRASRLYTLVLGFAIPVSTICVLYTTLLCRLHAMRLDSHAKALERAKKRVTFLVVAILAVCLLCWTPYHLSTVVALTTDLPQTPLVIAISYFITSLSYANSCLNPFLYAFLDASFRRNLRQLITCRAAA
Serine/threonine-protein phosphatase PP1-alpha catalytic subunit, sequence (P62136 whole entry): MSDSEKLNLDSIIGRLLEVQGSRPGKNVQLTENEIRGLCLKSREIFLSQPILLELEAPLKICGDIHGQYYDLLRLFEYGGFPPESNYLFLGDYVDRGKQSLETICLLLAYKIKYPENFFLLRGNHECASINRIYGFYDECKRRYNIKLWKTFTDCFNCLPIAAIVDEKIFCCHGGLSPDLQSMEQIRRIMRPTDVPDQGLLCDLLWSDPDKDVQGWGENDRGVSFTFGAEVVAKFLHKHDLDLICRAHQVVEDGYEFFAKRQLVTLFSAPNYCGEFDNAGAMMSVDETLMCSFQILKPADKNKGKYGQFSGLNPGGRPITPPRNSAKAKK
Glycogen synthase kinase-3 alpha, sequence (P49840 whole entry): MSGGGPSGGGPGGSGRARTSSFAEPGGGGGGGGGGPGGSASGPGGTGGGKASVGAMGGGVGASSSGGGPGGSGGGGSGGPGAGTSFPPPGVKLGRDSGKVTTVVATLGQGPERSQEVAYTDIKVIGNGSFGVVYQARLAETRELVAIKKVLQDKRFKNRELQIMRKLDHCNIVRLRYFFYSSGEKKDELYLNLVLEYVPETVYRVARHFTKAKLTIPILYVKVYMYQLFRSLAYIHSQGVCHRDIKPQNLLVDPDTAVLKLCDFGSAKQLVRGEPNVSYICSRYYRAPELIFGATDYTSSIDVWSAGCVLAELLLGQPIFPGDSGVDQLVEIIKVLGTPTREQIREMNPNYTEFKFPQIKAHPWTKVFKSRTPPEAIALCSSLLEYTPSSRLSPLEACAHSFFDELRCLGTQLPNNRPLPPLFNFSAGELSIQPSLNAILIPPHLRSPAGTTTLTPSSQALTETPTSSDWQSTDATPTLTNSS

As to `COc1ccc(Oc2c(Cl)cnn(CC(=O)Nc3ccccc3-c3ccccc3)c2=O)cc1`, the 50% inhibitory concentration (IC50) in [1] and in [2] was 1.14 µM (active) throughout.

In the case of `Cc1[nH]n(-c2ccccc2)c(=O)c1C(c1ccc([N+](=O)[O-])cc1)c1c(C)[nH]n(-c2ccccc2)c1=O`, the 50% inhibitory concentration (IC50) (commonly the midpoint of a concentration-inhibition curve) in experiment [3] was 33.2 µM (active); in experiment [4] it was 2.82 µM (active); in experiment [5] it was 10.3 µM (active); in experiment [7], 5.6 µM (active); in experiment [8], 29.9 µM (not active); in experiment [10], 9.57 µM (active). Further, the half-maximal inhibitory concentration (IC50) in experiment [11] is 3.19 µM (active). The EC50 (commonly the midpoint of the concentration-response curve) in experiment [6] is 0.39 µM (active). The AC50 – broadly, the midpoint of the concentration-response curve, whichever way the signal moves – in experiment [9] is 1.24 µM (active).

With `CCOc1cccc(-c2c(C(=O)N/N=C/c3sccc3C)nnn2-c2nonc2N)c1`, the AC50 in experiment [12] was 4.07 µM (active); in experiment [16], 0.474 µM (active); in experiment [17], 0.197 µM (active). Moreover, the results for the EC50 in [13], in experiment [14] and in experiment [15] were 15.6 µM (active), 82.2 µM (active) and > 120 µM (not active), respectively.
